≈ marks a conversion by molar mass, not a printed value.

The values below come from paper PMC8272121, “Synthesis and Evaluation of Chalcone-Quinoline Based Molecular Hybrids as Potential Anti-Malarial Agents” (Molecules, 2021).

Data set [1] has as its system P. falciparum K1 (multi-drug resistant strain). Description: In vitro antiplasmodial activity against multi-drug resistant K1 strain. As to conditions: Plasmodium falciparum; multi-drug resistant K1 strain of P. falciparum; read-out: PfK1 IC50. The data set is classed as cell-based.
Data set [2] relates to Chinese Hamster Ovary (CHO) mammalian cell line. In words: Cytotoxicity MTT assay on CHO cells. The data set is classed as cell-based. As to conditions: for IC50: Cricetulus griseus, CHO, Chinese hamster ovarian cell line, MTT, 48 h; for SI (selectivity index): SI = IC50 (CHO)/IC50 (PfNF54). The method, then: All the synthesized molecular hybrids (6–27) were evaluated for in vitro antiplasmodial activity against the drug-sensitive strain (NF54) of P. falciparum and for cytotoxicity against the Chinese Hamster Ovary (CHO) mammalian cell line using emetine as a reference drug. Aqueous solubility was determined at pH 6.5 (Table 2). Cytotoxicity assay. […] The reference standard, emetine, was prepared to 2 mg/mL in distilled water while stock solutions of test compounds were prepared to 20 mg/mL in 100% DMSO with the highest concentration of solvent to which the cells were exposed having no measurable effect on the cell viability. The initial concentration of the compounds and control was 100 μg/mL, which was serially diluted in complete medium with 10-fold dilutions to give six concentrations, the lowest being 0.001 μg/mL. Plates were incubated for 48 h with 100 μL of drug and 100 μL of cell suspension in each well and developed afterward by adding 25 μL of sterile MTT (Thermo Fisher Scientific) to each well, followed by 4 h of incubation in the dark. The plates were then centrifuged; the medium was aspirated, and 100 μL of DMSO was added to dissolve crystals before reading the absorbance at 540 nm. Data were analyzed, and the sigmoidal dose-response was derived using GraphPad Prism v 4.0 software (La Jolla). All experiments were performed for at least three independent biological repeats, each with technical triplicates.

Data set [3] relates to P. falciparum NF54 (drug-sensitive strain). In words: In vitro antiplasmodial assay (parasite lactate dehydrogenase), chloroquine-sensitive NF54 strain. As to conditions: Plasmodium falciparum; sensitive (NF54) strain of P. falciparum; pLDH assay, 48 h; mean of ≥2 independent experiments; read-out: PfNF54 IC50. In kind it is cell-based, Plasmodium falciparum. How it is done: All the synthesized molecular hybrids (6–27) were evaluated for in vitro antiplasmodial activity against the drug-sensitive strain (NF54) of P. falciparum and for cytotoxicity against the Chinese Hamster Ovary (CHO) mammalian cell line using emetine as a reference drug. Aqueous solubility was determined at pH 6.5 (Table 2).
In-vitro anti-plasmodium assay. Compounds were tested using parasite lactate dehydrogenase assay as a marker for parasite survival. The respective stock solutions of CQ diphosphate and test compounds were prepared by dissolving 2 mg/mL in distilled water (for CQ) and 100% DMSO for test compounds. The solutions were then stored at −20 °C, with further dilutions prepared on the day of the experiment. The cultures were synchronized in the ring stage as described previously using 15 mL of 5% (w/v) d-sorbitol in water. Synchronous cultures of PfNF54 (CQS) in the late trophozoite stage were prepared to 2% parasitemia and 2% hematocrit. […] Following incubation, 100 μL of MalStat reagent and 15 μL of resuspended culture were combined, followed by addition of 25 μL of nitro blue tetrazolium chloride (NBT). The plates were kept in the dark for about 10 min to fully develop, and absorbance was measured at 620 nm on a microplate reader. Raw data were exported to Microsoft Excel for dose-response analysis.

The nature of data set [4]: Aqueous solubility, miniaturized shake flask method (HPLC-DAD). In kind it is physicochemical. As to conditions: aqueous solution, aqueous buffer, thermodynamic from solid, pH 6.5, shake flask 20 h, 25 °C. How it is done:
All the synthesized molecular hybrids (6-27) were evaluated for in vitro antiplasmodial activity against the drug-sensitive strain (NF54) of P. falciparum and for cytotoxicity against the Chinese Hamster Ovary (CHO) mammalian cell line using emetine as a reference drug. Aqueous solubility was determined at pH 6.5 (Table 2). Aqueous solubility. Water solubility was analyzed using a miniaturized shake flask method. Ten millimolar stock solutions of each of the compounds were used to prepare calibration standards (10-220 μM) in DMSO. The same 10 mM stock solutions were accurately dispensed in duplicate into 96-well plates, and the DMSO, dried down ([…],90 min, 37 °C). Thereafter, the samples were reconstituted (200 μM) in an aqueous solution and shaken (20 h, 25 °C). The solutions were analyzed by means of HPLC-DAD (Agilent1200 Rapid Resolution HPLC with a diode array detector). Best fit calibration curves were constructed using the calibration standards, which were used to determine the aqueous samples' solubility.

The term IC50 denotes the concentration needed to halve the response being measured. For `O=C(/C=C/c1ccccc1Br)c1ccc(S(=O)(=O)NCCCNc2ccnc3cc(Cl)ccc23)cc1` [Compound 8, (E)-4-(3-(2-bromophenyl)acryloyl)-N-(3-((7-chloroquinolin-4-yl)amino)propyl)benzenesulfonamide], the IC50 in data set [1] was determined as 2.97 µM; in data set [2], 43.2 µM; in data set [3], 0.1 µM. The “SI (selectivity index)” value in data set [2] was 435.

Turning to `O=C(/C=C/c1ccc(Cl)cc1)c1ccc(S(=O)(=O)NCCCNc2ccnc3cc(Cl)ccc23)cc1` [Compound 11, (E)-4-(3-(4-chlorophenyl)acryloyl)-N-(3-((7-chloroquinolin-4-yl)amino)propyl)benzenesulfonamide], the IC50 in data set [1] came out at 6 µM; in data set [2] it was 41.2 µM; in data set [3], 0.1 µM. Further, the “SI (selectivity index)” value in data set [2] was 416.2.

A word on the melting point: it is the temperature, or range, at which the solid turns liquid. Consider `COc1ccc(/C=C/C(=O)c2ccc(S(=O)(=O)NCCCNc3ccnc4cc(Cl)ccc34)cc2)cc1` [Compound 12, (E)-N-(3-((7-chloroquinolin-4-yl)amino)propyl)-4-(3-(4-methoxyphenyl)acryloyl)benzenesulfonamide], for which the melting point fell in the range of 221 to 223 °C. Moreover, the IC50 in data set [1] was 0.59 µM. Also, in data set [2], the midpoint of inhibition, the IC50, lay at 43.3 µM and the “SI (selectivity index)” value is given as 393.6. The IC50 in data set [3] was 0.11 µM.

In general, solubility refers to the concentration that dissolves in the medium under given conditions. Higher therefore signals a readily soluble substance. `O=C(/C=C/c1ccco1)c1ccc(S(=O)(=O)NCCCNc2ccnc3cc(Cl)ccc23)cc1` [Compound 21, (E)-N-(3-((7-chloroquinolin-4-yl)amino)propyl)-4-(3-(furan-2-yl)acryloyl)benzenesulfonamide] had a melting point of 222 to 224 °C. In data set [2], the IC50 is > 50 µM and the “SI (selectivity index)” value was >11. The IC50 in data set [3] turned out to be 4.45 µM. The same molecule returned a solubility at 20 h in data set [4] of 200 µM (≈ 99.2 µg/mL).

Take `Cc1ccc(/C=C/C(=O)c2ccc(S(=O)(=O)NCCNc3ccnc4cc(Cl)ccc34)cc2)cc1` [Compound 22, (E)-N-(2-((7-chloroquinolin-4-yl)amino)ethyl)-4-(3-(p-tolyl)acryloyl)benzenesulfonamide]: the melting point was in the range of 184 to 187 °C. In addition, in data set [2], inhibition was half-maximal at 24.9 µM (IC50) and the “SI (selectivity index)” value was found to be 63.8. In addition, the IC50 in data set [3] was found to be 0.39 µM. For the same molecule, in data set [4], the solubility at 20 h was 190 µM (≈ 96.1 µg/mL).

`O=C(/C=C/c1ccc(F)cc1)c1ccc(S(=O)(=O)NCCNc2ccnc3cc(Cl)ccc23)cc1` [Compound 24, (E)-N-(2-((7-chloroquinolin-4-yl)amino)ethyl)-4-(3-(4-fluorophenyl)acryloyl)benzenesulfonamide] had a melting point of 222 to 224 °C. In data set [2], inhibition was half-maximal at 14.5 µM (IC50) and the “SI (selectivity index)” value amounted to 25.5. Besides, the half-inhibitory concentration (IC50) in data set [3] turned out to be 0.57 µM. In data set [4], the solubility at 20 h was < 5 µM.

As for `O=C(/C=C/c1ccccc1Cl)c1ccc(S(=O)(=O)NCCNc2ccnc3cc(Cl)ccc23)cc1` [Compound 25, (E)-4-(3-(2-chlorophenyl)acryloyl)-N-(2-((7-chloroquinolin-4-yl)amino)ethyl)benzenesulfonamide], the melting point is 209 to 211 °C. Also, in data set [2], the concentration for half-maximal inhibition (IC50) is 35.4 µM and the “SI (selectivity index)” value is 95.7. Also, the 50% inhibitory concentration (IC50) in data set [3] worked out at 0.37 µM. In addition, in data set [4], the solubility at 20 h was determined as 19 µM (≈ 10 µg/mL).

On to `O=C(/C=C/c1ccc2c(c1)OCO2)c1ccc(S(=O)(=O)NCCCNc2ccnc3cc(Cl)ccc23)cc1` [Compound 26, (E)-4-(3-(benzo[d][1,3]dioxol-5-yl)acryloyl)-N-(3-((7-chloroquinolin-4-yl)amino)propyl)benzenesulfonamide], for which the melting point lay within 222 to 224 °C. In data set [2], the concentration for half-maximal inhibition (IC50) worked out at 34.1 µM and the “SI (selectivity index)” value was 49.5. The IC50 in data set [3] is 0.69 µM. For the same molecule, the concentration in solution in data set [4] (solubility at 20 h) was 200 µM (≈ 110 µg/mL).
